Columns and labels:
Format in all cases: in vivo
Kochia (Kochia scoparia) [1] = test: Test A preemergence; conditions: Bassia scoparia, pre-emergence, 240 h, 0 to 100 scale where 0 is no effect and 100 is complete control, read-out: Kochia plant response rating
How it was run: (§1)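 Greenhouse, ~10 d after spray; visual injury vs untreated controls, 0 = no effect, 100 = complete control. Preemergence: directed soil spray over planted seeds. Postemergence: plants 2–10 cm, 1–2 leaf stage. Loam/sand blend. Compound in non-phytotoxic solvent with surfactant.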

[2] = system: barnyardgrass (Echinochloa crus-galli); test: Test A preemergence; conditions: Echinochloa crus-galli, pre-emergence, 240 h, 0 to 100 scale where 0 is no effect and 100 is complete control, read-out: Barnyardgrass plant response rating
How it was run: as §1

[3] = system: giant foxtail (Setaria faberii); test: Test A preemergence; conditions: Setaria faberi, pre-emergence, 240 h, 0 to 100 scale where 0 is no effect and 100 is complete control, read-out: Foxtail, Giant plant response rating
How it was run: as §1

[4] = system: pigweed (Amaranthus retroflexus); test: Test A preemergence; conditions: Amaranthus retroflexus, pre-emergence, 240 h, 0 to 100 scale where 0 is no effect and 100 is complete control, read-out: Pigweed plant response rating
[5] = system: ragweed (common ragweed, Ambrosia elatior); test: Test A preemergence; conditions: Ambrosia artemisiifolia, pre-emergence, 240 h, 0 to 100 scale where 0 is no effect and 100 is complete control, read-out: Ragweed plant response rating
How it was run: as §1

[6] = system: ryegrass, Italian (Italian ryegrass, Lolium multiflorum); test: Test A preemergence; conditions: Lolium multiflorum, pre-emergence, 240 h, 0 to 100 scale where 0 is no effect and 100 is complete control, read-out: Ryegrass, Italian plant response rating
How it was run: as §1

Kochia (Kochia scoparia) [7] = test: Test A postemergence; conditions: Bassia scoparia, post-emergence, 240 h
How it was run: as §1

[8] = system: barnyardgrass (Echinochloa crus-galli); test: Test A postemergence; conditions: Echinochloa crus-galli, post-emergence, 240 h
How it was run: as §1

[9] = system: blackgrass (Alopecurus myosuroides); test: Test A postemergence; conditions: Alopecurus myosuroides, post-emergence, 240 h
How it was run: as §1

corn (Zea mays) = test: Test A postemergence; conditions: Zea mays, post-emergence, 240 h
How it was run: as §1

[10] = system: giant foxtail (Setaria faberii); test: Test A postemergence; conditions: Setaria faberi, post-emergence, 240 h
How it was run: as §1

[11] = system: pigweed (Amaranthus retroflexus); test: Test A postemergence; conditions: Amaranthus retroflexus, post-emergence, 240 h
How it was run: as §1

[12] = system: ragweed (common ragweed, Ambrosia elatior); test: Test A postemergence; conditions: Ambrosia artemisiifolia, post-emergence, 240 h
How it was run: as §1

[13] = system: ryegrass, Italian (Italian ryegrass, Lolium multiflorum); test: Test A postemergence; conditions: Lolium multiflorum, post-emergence, 240 h
How it was run: as §1

[14] = system: wheat (Triticum aestivum); test: Test A postemergence; conditions: Triticum aestivum, post-emergence, 240 h
How it was run: as §1

[15] = system: barnyardgrass (Echinochloa crus-galli); test: Test B flooded paddy test; conditions: Echinochloa crus-galli, 250 g ai/ha, Flood; 0 to 100 scale where 0 is no effect and 100 is complete control; read-out: Barnyardgrass plant response rating
How it was run: (§2)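 2-leaf plants; pots flooded 3 cm over soil; cpd added to paddy water; depth held; greenhouse 13–15 d; visual rating vs controls, 0 = no effect, 100 = complete control.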

[16] = system: ducksalad (Heteranthera limosa); test: Test B flooded paddy test; conditions: Heteranthera limosa, 250 g ai/ha, Flood; 0 to 100 scale where 0 is no effect and 100 is complete control; read-out: Ducksalad plant response rating
How it was run: as §2

rice (Oryra sativa) = test: Test B flooded paddy test; conditions: Oryza sativa, 250 g ai/ha, Flood; 0 to 100 scale where 0 is no effect and 100 is complete control; read-out: Rice plant response rating
How it was run: as §2

[17] = system: sedge, umbrella (small-flower umbrella sedge, Cyperus difformis); test: Test B flooded paddy test; conditions: Cyperus difformis, 250 g ai/ha, Flood; 0 to 100 scale where 0 is no effect and 100 is complete control; read-out: Sedge, Umbrella plant response rating
How it was run: as §2

[18] = 125 g ai/ha, preemergence, approx. 10 d

## Cc1c(F)cccc1NC(=O)[C@H]1C(=O)N(C)C[C@@H]1c1cc(C(F)F)cs1 [Compound 1089]
Kochia (Kochia scoparia) [1]; 31 g ai/ha, Preemergence
  pest or weed control at 31 g/ha: 0%
Kochia (Kochia scoparia) [1]; [18]
  pest or weed control at 125 g/ha: 20%
[2]; 31 g ai/ha, Preemergence
  pest or weed control at 31 g/ha: 90%
[2]; [18]
  pest or weed control at 125 g/ha: 90%
[3]; 31 g ai/ha, Preemergence
  pest or weed control at 31 g/ha: 100%
[3]; [18]
  pest or weed control at 125 g/ha: 100%
[4]; 31 g ai/ha, Preemergence
  pest or weed control at 31 g/ha: 0%
[4]; [18]
  pest or weed control at 125 g/ha: 0%
[5]; 31 g ai/ha, Preemergence
  pest or weed control at 31 g/ha: 0%
[5]; [18]
  pest or weed control at 125 g/ha: 60%
[6]; 31 g ai/ha, Preemergence
  pest or weed control at 31 g/ha: 0%
[6]; [18]
  pest or weed control at 125 g/ha: 10%
Kochia (Kochia scoparia) [7]; 125 g ai/ha, postemergence, visual injury on 0 to 100 scale (0 no effect, 100 complete control), approx. 10 d, read-out: Kochia plant response rating
  pest or weed control at 125 g/ha: 0%
Kochia (Kochia scoparia) [7]; Postemergence, 31 g ai/ha, visual injury after approx. 10 d, 0 to 100 scale, 0 no effect, 100 complete control, read-out: Plant response rating, Kochia
  pest or weed control at 31 g/ha: 0%
[8]; 125 g ai/ha, postemergence, visual injury on 0 to 100 scale (0 no effect, 100 complete control), approx. 10 d, read-out: Barnyardgrass plant response rating
  pest or weed control at 125 g/ha: 90%
[8]; Postemergence, 31 g ai/ha, visual injury after approx. 10 d, 0 to 100 scale, 0 no effect, 100 complete control, read-out: Plant response rating, Barnyardgrass
  pest or weed control at 31 g/ha: 60%
[9]; 125 g ai/ha, postemergence, visual injury on 0 to 100 scale (0 no effect, 100 complete control), approx. 10 d, read-out: Blackgrass plant response rating
  pest or weed control at 125 g/ha: 30%
[9]; Postemergence, 31 g ai/ha, visual injury after approx. 10 d, 0 to 100 scale, 0 no effect, 100 complete control, read-out: Plant response rating, Blackgrass
  pest or weed control at 31 g/ha: 0%
Corn (Zea mays); 125 g ai/ha, postemergence, visual injury on 0 to 100 scale (0 no effect, 100 complete control), approx. 10 d, read-out: Corn plant response rating
  plant injury at 125 g/ha: 30%
Corn (Zea mays); Postemergence, 31 g ai/ha, visual injury after approx. 10 d, 0 to 100 scale, 0 no effect, 100 complete control
  Corn plant response rating (crop injury, 0 = no effect, 100 = complete kill) at 31 g/ha: 0%
[10]; 125 g ai/ha, postemergence, visual injury on 0 to 100 scale (0 no effect, 100 complete control), approx. 10 d, read-out: Foxtail, Giant plant response rating
  pest or weed control at 125 g/ha: 90%
[10]; Postemergence, 31 g ai/ha, visual injury after approx. 10 d, 0 to 100 scale, 0 no effect, 100 complete control, read-out: Plant response rating, Foxtail, Giant
  pest or weed control at 31 g/ha: 80%
[11]; 125 g ai/ha, postemergence, visual injury on 0 to 100 scale (0 no effect, 100 complete control), approx. 10 d, read-out: Pigweed plant response rating
  pest or weed control at 125 g/ha: 0%
[11]; Postemergence, 31 g ai/ha, visual injury after approx. 10 d, 0 to 100 scale, 0 no effect, 100 complete control, read-out: Plant response rating, Pigweed
  pest or weed control at 31 g/ha: 0%
[12]; 125 g ai/ha, postemergence, visual injury on 0 to 100 scale (0 no effect, 100 complete control), approx. 10 d, read-out: Ragweed plant response rating
  pest or weed control at 125 g/ha: 20%
[12]; Postemergence, 31 g ai/ha, visual injury after approx. 10 d, 0 to 100 scale, 0 no effect, 100 complete control, read-out: Plant response rating, Ragweed
  pest or weed control at 31 g/ha: 0%
[13]; 125 g ai/ha, postemergence, visual injury on 0 to 100 scale (0 no effect, 100 complete control), approx. 10 d, read-out: Ryegrass, Italian plant response rating
  pest or weed control at 125 g/ha: 0%
[13]; Postemergence, 31 g ai/ha, visual injury after approx. 10 d, 0 to 100 scale, 0 no effect, 100 complete control, read-out: Plant response rating, Ryegrass, Italian
  pest or weed control at 31 g/ha: 0%
[14]; 125 g ai/ha, postemergence, visual injury on 0 to 100 scale (0 no effect, 100 complete control), approx. 10 d, read-out: Wheat plant response rating
  plant injury at 125 g/ha: 30%
[14]; Postemergence, 31 g ai/ha, visual injury after approx. 10 d, 0 to 100 scale, 0 no effect, 100 complete control, read-out: Plant response rating, Wheat
  plant injury at 31 g/ha: 0%
[15]
  pest or weed control at 250 g/ha: 90%
[16]
  pest or weed control at 250 g/ha: 85%
Rice (Oryra sativa)
  pest or weed control at 250 g/ha: 0%
[17]
  pest or weed control at 250 g/ha: 0%

From patent publication US12077503B2, “Substituted cyclic amides and their use as herbicides” (FMC CORPORATION, priority 2015, dated 2024)
